# In PubChem BioAssay (NCI):
#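 Exposure lasted 48 hours, with cells grown in 96-well plates and compounds tested at five concentrations. Abbreviation: GI50, concentration required for 50% inhibition of growth. At the TGI there is no net growth.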
# What was measured:
# Assay in all cases: growth of human tumour cells (NCI), 48 h
# MOLT-4 leukemia = tested on: MOLT-4 leukemia
# HCT-116 colon = tested on: HCT-116 colon
# SK-OV-3 ovarian = tested on: SK-OV-3 ovarian
# SR leukemia = tested on: SR leukemia
# HOP-62 NSCLC = tested on: HOP-62 NSCLC
# MDA-MB-231 breast = tested on: MDA-MB-231 breast
# HL-60(TB) leukemia = tested on: HL-60(TB) leukemia
# A498 renal = tested on: A498 renal
# SF-268 CNS = tested on: SF-268 CNS
# HCC-2998 colon = tested on: HCC-2998 colon
# SF-295 CNS = tested on: SF-295 CNS
# HT29 colon = tested on: HT29 colon
# OVCAR-4 ovarian = tested on: OVCAR-4 ovarian
# UACC-257 melanoma = tested on: UACC-257 melanoma
# SK-MEL-28 melanoma = tested on: SK-MEL-28 melanoma
# K-562 leukemia = tested on: K-562 leukemia
# SNB-75 CNS = tested on: SNB-75 CNS
# CAKI-1 renal = tested on: CAKI-1 renal
# A549 NSCLC = tested on: A549 NSCLC
# NCI/ADR-RES ovarian = tested on: NCI/ADR-RES ovarian
# MCF7 breast = tested on: MCF7 breast
# SN12C renal = tested on: SN12C renal
# MALME-3M melanoma = tested on: MALME-3M melanoma
# SW-620 colon = tested on: SW-620 colon
# HS 578T breast = tested on: HS 578T breast
# NCI-H460 lung = tested on: NCI-H460 lung
# UACC-62 melanoma = tested on: UACC-62 melanoma
# RPMI-8226 leukemia = tested on: RPMI-8226 leukemia
# SK-MEL-5 melanoma = tested on: SK-MEL-5 melanoma
# OVCAR-5 ovarian = tested on: OVCAR-5 ovarian
# SK-MEL-2 melanoma = tested on: SK-MEL-2 melanoma
# T-47D breast = tested on: T-47D breast
# NCI-H522 lung = tested on: NCI-H522 lung
# MDA-MB-435 = tested on: MDA-MB-435
# BT-549 breast = tested on: BT-549 breast
# OVCAR-8 ovarian = tested on: OVCAR-8 ovarian
# CCRF-CEM leukemia = tested on: CCRF-CEM leukemia
# COLO 205 colon = tested on: COLO 205 colon
# TK-10 renal = tested on: TK-10 renal
# EKVX NSCLC = tested on: EKVX NSCLC
# DU-145 prostate = tested on: DU-145 prostate
# U251 CNS = tested on: U251 CNS
# NCI-H23 lung = tested on: NCI-H23 lung
# KM12 colon = tested on: KM12 colon
# 786-0 renal = tested on: 786-0 renal
# LOX IMVI melanoma = tested on: LOX IMVI melanoma
# RXF 393 renal = tested on: RXF 393 renal
# NCI-H226 lung = tested on: NCI-H226 lung
# SF-539 CNS = tested on: SF-539 CNS
# PC-3 prostate = tested on: PC-3 prostate
# HOP-92 NSCLC = tested on: HOP-92 NSCLC
# HCT-15 colon = tested on: HCT-15 colon
# ACHN renal = tested on: ACHN renal
# SNB-19 CNS = tested on: SNB-19 CNS
# IGROV1 ovarian = tested on: IGROV1 ovarian
# UO-31 renal = tested on: UO-31 renal
# M14 melanoma = tested on: M14 melanoma
structure (smiles),measurement,setting,value
C#Cc1ccc(NC(=O)c2ccc(/C=C/C(=O)c3nccn3C)cc2)c(F)c1,GI50,MOLT-4 leukemia,1370 nM
same,TGI,MOLT-4 leukemia,5420 nM
same,GI50,HCT-116 colon,876 nM
same,TGI,HCT-116 colon,1940 nM
same,GI50,SK-OV-3 ovarian,2530 nM
same,TGI,SK-OV-3 ovarian,> 50000 nM
same,GI50,SR leukemia,545 nM
same,TGI,SR leukemia,4440 nM
same,GI50,HOP-62 NSCLC,1540 nM
same,TGI,HOP-62 NSCLC,> 50000 nM
same,GI50,MDA-MB-231 breast,2140 nM
same,TGI,MDA-MB-231 breast,22400 nM
same,GI50,HL-60(TB) leukemia,844 nM
same,TGI,HL-60(TB) leukemia,2430 nM
same,GI50,A498 renal,2500 nM
same,TGI,A498 renal,> 50000 nM
same,GI50,SF-268 CNS,1630 nM
same,TGI,SF-268 CNS,> 50000 nM
same,GI50,HCC-2998 colon,1740 nM
same,TGI,HCC-2998 colon,> 50000 nM
same,GI50,SF-295 CNS,1740 nM
same,TGI,SF-295 CNS,16800 nM
same,GI50,HT29 colon,1490 nM
same,TGI,HT29 colon,> 50000 nM
same,GI50,OVCAR-4 ovarian,2650 nM
same,TGI,OVCAR-4 ovarian,> 50000 nM
same,GI50,UACC-257 melanoma,> 50000 nM
same,TGI,UACC-257 melanoma,> 50000 nM
same,GI50,SK-MEL-28 melanoma,> 50000 nM
same,TGI,SK-MEL-28 melanoma,> 50000 nM
same,GI50,K-562 leukemia,853 nM
same,TGI,K-562 leukemia,> 50000 nM
same,GI50,SNB-75 CNS,1000 nM
same,TGI,SNB-75 CNS,4340 nM
same,GI50,CAKI-1 renal,2270 nM
same,TGI,CAKI-1 renal,> 50000 nM
same,GI50,A549 NSCLC,1510 nM
same,TGI,A549 NSCLC,> 50000 nM
same,GI50,NCI/ADR-RES ovarian,1500 nM
same,TGI,NCI/ADR-RES ovarian,> 50000 nM
same,GI50,MCF7 breast,1290 nM
same,TGI,MCF7 breast,> 50000 nM
same,GI50,SN12C renal,1440 nM
same,TGI,SN12C renal,> 50000 nM
same,GI50,MALME-3M melanoma,3760 nM
same,TGI,MALME-3M melanoma,> 50000 nM
same,GI50,SW-620 colon,1330 nM
same,TGI,SW-620 colon,> 50000 nM
same,GI50,HS 578T breast,1880 nM
same,TGI,HS 578T breast,> 50000 nM
same,GI50,NCI-H460 lung,1120 nM
same,TGI,NCI-H460 lung,2680 nM
same,GI50,UACC-62 melanoma,1930 nM
same,TGI,UACC-62 melanoma,> 50000 nM
same,GI50,RPMI-8226 leukemia,522 nM
same,TGI,RPMI-8226 leukemia,2140 nM
same,GI50,SK-MEL-5 melanoma,2040 nM
same,TGI,SK-MEL-5 melanoma,> 50000 nM
same,GI50,OVCAR-5 ovarian,1770 nM
same,TGI,OVCAR-5 ovarian,> 50000 nM
same,GI50,SK-MEL-2 melanoma,> 50000 nM
same,TGI,SK-MEL-2 melanoma,> 50000 nM
same,GI50,T-47D breast,1840 nM
same,TGI,T-47D breast,> 50000 nM
same,GI50,NCI-H522 lung,2160 nM
same,TGI,NCI-H522 lung,> 50000 nM
same,GI50,MDA-MB-435,1860 nM
same,TGI,MDA-MB-435,> 50000 nM
same,GI50,BT-549 breast,823 nM
same,TGI,BT-549 breast,2250 nM
same,GI50,OVCAR-8 ovarian,1910 nM
same,TGI,OVCAR-8 ovarian,> 50000 nM
same,GI50,CCRF-CEM leukemia,1080 nM
same,TGI,CCRF-CEM leukemia,5850 nM
same,GI50,COLO 205 colon,4020 nM
same,TGI,COLO 205 colon,> 50000 nM
same,GI50,TK-10 renal,> 50000 nM
same,TGI,TK-10 renal,> 50000 nM
same,GI50,EKVX NSCLC,1410 nM
same,TGI,EKVX NSCLC,> 50000 nM
same,GI50,DU-145 prostate,1810 nM
same,TGI,DU-145 prostate,45600 nM
Oc1ccc(CSc2nnc(-c3ccc(Cl)cc3)n2-c2ccccc2)c2cccnc12,GI50,MOLT-4 leukemia,592 nM
same,TGI,MOLT-4 leukemia,> 100000 nM
same,GI50,HCT-116 colon,375 nM
same,TGI,HCT-116 colon,> 100000 nM
same,GI50,SK-OV-3 ovarian,2340 nM
same,TGI,SK-OV-3 ovarian,> 100000 nM
same,GI50,SR leukemia,264 nM
same,TGI,SR leukemia,> 100000 nM
same,GI50,HOP-62 NSCLC,544 nM
same,TGI,HOP-62 NSCLC,> 100000 nM
same,GI50,MDA-MB-231 breast,5840 nM
same,TGI,MDA-MB-231 breast,> 100000 nM
same,GI50,U251 CNS,327 nM
same,TGI,U251 CNS,> 22100 nM
same,GI50,NCI-H23 lung,697 nM
same,TGI,NCI-H23 lung,> 100000 nM
same,GI50,KM12 colon,877 nM
same,TGI,KM12 colon,> 100000 nM
same,GI50,HL-60(TB) leukemia,584 nM
same,TGI,HL-60(TB) leukemia,> 100000 nM
same,GI50,786-0 renal,1170 nM
same,TGI,786-0 renal,> 100000 nM
same,GI50,LOX IMVI melanoma,425 nM
same,TGI,LOX IMVI melanoma,> 100000 nM
same,GI50,RXF 393 renal,1790 nM
same,TGI,RXF 393 renal,> 100000 nM
same,GI50,A498 renal,3890 nM
same,TGI,A498 renal,> 100000 nM
same,GI50,SF-268 CNS,633 nM
same,TGI,SF-268 CNS,> 100000 nM
same,GI50,NCI-H226 lung,4980 nM
same,TGI,NCI-H226 lung,> 100000 nM
same,GI50,SF-539 CNS,444 nM
same,TGI,SF-539 CNS,> 100000 nM
same,GI50,HCC-2998 colon,733 nM
same,TGI,HCC-2998 colon,> 100000 nM
same,GI50,SF-295 CNS,732 nM
same,TGI,SF-295 CNS,> 100000 nM
same,GI50,HT29 colon,> 100000 nM
same,TGI,HT29 colon,> 100000 nM
same,GI50,OVCAR-4 ovarian,2070 nM
same,TGI,OVCAR-4 ovarian,> 100000 nM
same,GI50,UACC-257 melanoma,2980 nM
same,TGI,UACC-257 melanoma,> 100000 nM
same,GI50,SK-MEL-28 melanoma,1150 nM
same,TGI,SK-MEL-28 melanoma,> 100000 nM
same,GI50,K-562 leukemia,357 nM
same,TGI,K-562 leukemia,> 100000 nM
same,GI50,SNB-75 CNS,802 nM
same,TGI,SNB-75 CNS,> 100000 nM
same,GI50,CAKI-1 renal,1270 nM
same,TGI,CAKI-1 renal,> 100000 nM
same,GI50,A549 NSCLC,2070 nM
same,TGI,A549 NSCLC,> 100000 nM
same,GI50,NCI/ADR-RES ovarian,211 nM
same,TGI,NCI/ADR-RES ovarian,> 100000 nM
same,GI50,PC-3 prostate,636 nM
same,TGI,PC-3 prostate,> 100000 nM
same,GI50,HOP-92 NSCLC,351 nM
same,TGI,HOP-92 NSCLC,6340 nM
same,GI50,MCF7 breast,410 nM
same,TGI,MCF7 breast,> 100000 nM
same,GI50,SN12C renal,908 nM
same,TGI,SN12C renal,> 100000 nM
same,GI50,MALME-3M melanoma,2390 nM
same,TGI,MALME-3M melanoma,> 100000 nM
same,GI50,HCT-15 colon,162 nM
same,TGI,HCT-15 colon,> 100000 nM
same,GI50,SW-620 colon,436 nM
same,TGI,SW-620 colon,> 100000 nM
same,GI50,HS 578T breast,364 nM
same,TGI,HS 578T breast,> 23600 nM
same,GI50,NCI-H460 lung,368 nM
same,TGI,NCI-H460 lung,> 100000 nM
same,GI50,UACC-62 melanoma,1490 nM
same,TGI,UACC-62 melanoma,> 100000 nM
same,GI50,RPMI-8226 leukemia,456 nM
same,TGI,RPMI-8226 leukemia,> 100000 nM
same,GI50,ACHN renal,532 nM
same,TGI,ACHN renal,> 100000 nM
same,GI50,SK-MEL-5 melanoma,2220 nM
same,TGI,SK-MEL-5 melanoma,> 100000 nM
same,GI50,OVCAR-5 ovarian,5730 nM
same,TGI,OVCAR-5 ovarian,> 100000 nM
same,GI50,SK-MEL-2 melanoma,1340 nM
same,TGI,SK-MEL-2 melanoma,> 72100 nM
same,GI50,T-47D breast,1920 nM
same,TGI,T-47D breast,> 100000 nM
same,GI50,NCI-H522 lung,1910 nM
same,TGI,NCI-H522 lung,> 100000 nM
same,GI50,MDA-MB-435,517 nM
same,TGI,MDA-MB-435,> 100000 nM
same,GI50,BT-549 breast,731 nM
same,TGI,BT-549 breast,> 100000 nM
same,GI50,SNB-19 CNS,434 nM
same,TGI,SNB-19 CNS,> 100000 nM
same,GI50,IGROV1 ovarian,954 nM
same,TGI,IGROV1 ovarian,> 100000 nM
same,GI50,OVCAR-8 ovarian,516 nM
same,TGI,OVCAR-8 ovarian,> 100000 nM
same,GI50,CCRF-CEM leukemia,488 nM
same,TGI,CCRF-CEM leukemia,> 100000 nM
same,GI50,UO-31 renal,273 nM
same,TGI,UO-31 renal,> 100000 nM
same,GI50,COLO 205 colon,> 100000 nM
same,TGI,COLO 205 colon,> 100000 nM
same,GI50,TK-10 renal,756 nM
same,TGI,TK-10 renal,> 100000 nM
same,GI50,EKVX NSCLC,1380 nM
same,TGI,EKVX NSCLC,> 100000 nM
same,GI50,M14 melanoma,510 nM
same,TGI,M14 melanoma,> 100000 nM
same,GI50,DU-145 prostate,762 nM
same,TGI,DU-145 prostate,> 100000 nM
